Assay results as given in ChEMBL document CHEMBL1201862, “PubChem BioAssay data set” (2004).
Calls of active or inactive are those of the source.

How the values were obtained:
Protein RecA = target: T1, Protein RecA (Mycobacterium tuberculosis, UniProt P9WHJ3); assay: Fluorescence Cell-Free Homogeneous Dose Retest to Identify Inhibitors of RecA-Intein Splicing Activity. [Related pubchem assays (depositor defined):AID2097, AID2223, AID489010, AID492950]; format: functional
T1 sequence (P9WHJ3 whole entry): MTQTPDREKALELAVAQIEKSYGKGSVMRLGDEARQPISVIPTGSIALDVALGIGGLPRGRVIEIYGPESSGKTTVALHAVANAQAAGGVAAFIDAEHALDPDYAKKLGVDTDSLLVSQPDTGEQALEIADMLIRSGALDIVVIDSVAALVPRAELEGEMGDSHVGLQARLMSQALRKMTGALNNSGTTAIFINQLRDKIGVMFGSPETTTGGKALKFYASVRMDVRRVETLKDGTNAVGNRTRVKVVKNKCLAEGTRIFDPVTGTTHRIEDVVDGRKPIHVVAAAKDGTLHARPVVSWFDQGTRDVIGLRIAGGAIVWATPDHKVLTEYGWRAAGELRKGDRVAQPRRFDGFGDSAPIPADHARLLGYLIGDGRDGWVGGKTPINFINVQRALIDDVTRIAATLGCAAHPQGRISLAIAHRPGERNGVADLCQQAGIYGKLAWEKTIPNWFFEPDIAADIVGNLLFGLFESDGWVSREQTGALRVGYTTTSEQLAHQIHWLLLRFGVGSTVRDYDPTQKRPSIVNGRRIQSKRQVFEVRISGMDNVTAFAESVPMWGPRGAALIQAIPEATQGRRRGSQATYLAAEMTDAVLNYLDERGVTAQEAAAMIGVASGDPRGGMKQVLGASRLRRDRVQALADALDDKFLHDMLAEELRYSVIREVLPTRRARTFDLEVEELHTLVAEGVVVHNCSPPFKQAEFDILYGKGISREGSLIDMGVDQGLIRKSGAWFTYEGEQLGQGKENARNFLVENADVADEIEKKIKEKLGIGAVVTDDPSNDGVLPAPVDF

[1] = target: T2, Heat shock factor protein 1 (Mus musculus, UniProt P38532); assay: enhancement of HSF1-driven luciferase signal – cell-based, NIH3T3, luminescence, dose retest, confirmation (AID 435004); format: functional;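 also: stress induced by proteasome inhibitor MG132 added 30 min after compound; luciferase reporter driven by HSF1 response element in NIH3T3 cells; actives raise luminescence as potentiators of the MG132 stress response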
T2 sequence (P38532 whole entry): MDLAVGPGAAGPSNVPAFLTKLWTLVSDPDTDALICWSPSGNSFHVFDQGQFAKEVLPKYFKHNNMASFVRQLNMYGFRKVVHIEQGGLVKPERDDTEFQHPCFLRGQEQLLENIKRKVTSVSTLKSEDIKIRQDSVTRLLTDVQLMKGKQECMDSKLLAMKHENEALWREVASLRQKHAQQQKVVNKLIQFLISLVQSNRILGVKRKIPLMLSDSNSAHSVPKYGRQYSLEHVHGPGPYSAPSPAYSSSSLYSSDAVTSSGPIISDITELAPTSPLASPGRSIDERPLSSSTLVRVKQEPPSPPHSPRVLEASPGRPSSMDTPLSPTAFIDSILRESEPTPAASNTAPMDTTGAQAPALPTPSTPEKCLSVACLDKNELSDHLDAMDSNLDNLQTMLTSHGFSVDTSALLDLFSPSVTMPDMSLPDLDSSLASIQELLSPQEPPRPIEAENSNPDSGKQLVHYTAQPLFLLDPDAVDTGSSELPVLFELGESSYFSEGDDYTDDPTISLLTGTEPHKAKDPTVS

[2] = target: T3, Serine/threonine-protein phosphatase (Candida dubliniensis (strain CD36 / CBS 7987 / NCPF 3949 / NRRLY-17841) (Yeast), UniProt B9W6M3); assay: blockers of CaCl2-induced CDRE-lacZ signaling – S. cerevisiae, luminescence, secondary, dose response (AID 2388); format: functional, cell-based;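 also: yeast reporter cells carrying a calcineurin-responsive lacZ construct stimulated with calcium chloride; luminescent beta-galactosidase reporter signal in whole cells rather than isolated phosphatase activity; potency for inhibition where a drop in reporter signal means calcineurin blockade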
T3 sequence (B9W6M3 whole entry): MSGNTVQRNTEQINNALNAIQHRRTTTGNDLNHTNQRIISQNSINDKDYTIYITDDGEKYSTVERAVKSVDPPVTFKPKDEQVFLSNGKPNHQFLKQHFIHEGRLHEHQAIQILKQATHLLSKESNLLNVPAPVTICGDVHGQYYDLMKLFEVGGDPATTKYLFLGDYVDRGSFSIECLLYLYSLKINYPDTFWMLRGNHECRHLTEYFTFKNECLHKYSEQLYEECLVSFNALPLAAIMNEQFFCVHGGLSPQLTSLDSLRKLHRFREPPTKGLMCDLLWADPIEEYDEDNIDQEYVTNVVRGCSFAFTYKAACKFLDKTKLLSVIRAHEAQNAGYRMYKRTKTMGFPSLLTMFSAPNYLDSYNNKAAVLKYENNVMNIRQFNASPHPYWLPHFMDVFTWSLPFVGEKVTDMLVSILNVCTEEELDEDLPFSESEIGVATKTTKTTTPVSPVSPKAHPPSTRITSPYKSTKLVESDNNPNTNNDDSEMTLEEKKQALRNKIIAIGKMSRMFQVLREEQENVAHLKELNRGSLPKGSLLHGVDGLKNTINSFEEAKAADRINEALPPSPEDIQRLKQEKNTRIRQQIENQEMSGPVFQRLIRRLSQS

[3] = target: ATP-dependent molecular chaperone HSP82 (Candida albicans (strain WO-1) (Yeast), UniProt C4YTQ8); assay: steroid-induced GRE reporter decrease in yeast – S. cerevisiae, luminescence, Hsp90 inhibitor project, dose response (AID 2400); format: functional, cell-based;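 also: beta-galactosidase luminescence from glucocorticoid response element reporter as proxy for Hsp90 function; inhibitor potency where signal loss means Hsp90 inhibition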
[4] = loss of viability in HepG2 cells – cell-based, CellTiter-Glo, cherry-picked, cytotoxicity control for Shn3 inhibitor project, dose response (AID 624134); format: functional
[5] = target: Cyclin-dependent kinase 5 (Homo sapiens, UniProt Q00535); format: functional;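 also: CDK5 measured as one member of a kinase profiling panel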
[6] = target: Serine/threonine-protein kinase TAO1 (Homo sapiens, UniProt Q7L7X3); format: functional
[7] = target: Dual specificity mitogen-activated protein kinase kinase 2 (Homo sapiens, UniProt P36507); assay: Navigating the Kinome. Panel member name: MAP2K2; format: functional
[8] = target: Glycogen synthase kinase-3 alpha (Homo sapiens, UniProt P49840); format: functional;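 also: GSK3A result taken from a broad kinome-wide kinase panel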
[9] = target: Insulin-like growth factor 1 receptor (Homo sapiens, UniProt P08069); assay: Navigating the Kinome. Panel member name: IGF1R; format: functional
[10] = target: Serine/threonine-protein kinase D3 (Homo sapiens, UniProt O94806); format: functional;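 also: determined within a kinase panel screen, with PRKCN as the panel member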
[11] = target: Cyclin-dependent kinase 8 (Homo sapiens, UniProt P49336); assay: Navigating the Kinome. Panel member name: CDK8; format: functional
[12] = target: Cyclin-dependent kinase 7 (Homo sapiens, UniProt P50613); format: functional;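 also: value comes from a kinome-wide kinase profiling panel in which CDK7 is one member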
[13] = target: Mitogen-activated protein kinase 10 (Homo sapiens, UniProt P53779); assay: Navigating the Kinome. Panel member name: MAPK10; format: functional
[14] = target: Vascular endothelial growth factor receptor 2 (Homo sapiens, UniProt P35968); format: functional
[15] = target: Tyrosine-protein kinase BTK (Homo sapiens, UniProt Q06187); format: functional
Chain of Tyrosine-protein kinase BTK (Q06187 whole entry): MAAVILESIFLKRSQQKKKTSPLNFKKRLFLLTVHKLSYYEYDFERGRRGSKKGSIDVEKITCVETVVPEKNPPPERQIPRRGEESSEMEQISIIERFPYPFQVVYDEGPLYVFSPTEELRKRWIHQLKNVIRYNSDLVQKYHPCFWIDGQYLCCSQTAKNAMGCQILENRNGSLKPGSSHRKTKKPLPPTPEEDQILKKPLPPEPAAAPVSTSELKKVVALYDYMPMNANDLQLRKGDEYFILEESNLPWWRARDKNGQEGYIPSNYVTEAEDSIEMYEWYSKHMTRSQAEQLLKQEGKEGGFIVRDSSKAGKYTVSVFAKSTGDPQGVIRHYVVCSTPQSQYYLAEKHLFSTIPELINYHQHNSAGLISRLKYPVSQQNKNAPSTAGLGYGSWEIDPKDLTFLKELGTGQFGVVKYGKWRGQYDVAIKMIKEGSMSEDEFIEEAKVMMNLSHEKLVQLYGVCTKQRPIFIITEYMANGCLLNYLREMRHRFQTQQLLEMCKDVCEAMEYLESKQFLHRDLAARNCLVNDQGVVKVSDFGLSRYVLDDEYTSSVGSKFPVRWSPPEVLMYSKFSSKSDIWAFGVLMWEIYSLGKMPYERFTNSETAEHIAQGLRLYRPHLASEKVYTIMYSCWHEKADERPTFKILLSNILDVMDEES

Chain of Cyclin-dependent kinase 7 (P50613 whole entry): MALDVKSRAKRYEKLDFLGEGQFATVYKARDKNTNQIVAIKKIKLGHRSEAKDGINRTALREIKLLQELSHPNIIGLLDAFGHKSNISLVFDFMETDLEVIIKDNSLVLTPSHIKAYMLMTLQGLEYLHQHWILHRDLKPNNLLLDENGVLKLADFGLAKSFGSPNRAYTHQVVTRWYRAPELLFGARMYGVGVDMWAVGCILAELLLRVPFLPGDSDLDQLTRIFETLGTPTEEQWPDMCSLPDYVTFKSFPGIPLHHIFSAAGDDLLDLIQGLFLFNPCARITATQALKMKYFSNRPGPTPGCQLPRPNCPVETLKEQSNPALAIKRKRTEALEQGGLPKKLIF
Chain of Glycogen synthase kinase-3 alpha (P49840 whole entry): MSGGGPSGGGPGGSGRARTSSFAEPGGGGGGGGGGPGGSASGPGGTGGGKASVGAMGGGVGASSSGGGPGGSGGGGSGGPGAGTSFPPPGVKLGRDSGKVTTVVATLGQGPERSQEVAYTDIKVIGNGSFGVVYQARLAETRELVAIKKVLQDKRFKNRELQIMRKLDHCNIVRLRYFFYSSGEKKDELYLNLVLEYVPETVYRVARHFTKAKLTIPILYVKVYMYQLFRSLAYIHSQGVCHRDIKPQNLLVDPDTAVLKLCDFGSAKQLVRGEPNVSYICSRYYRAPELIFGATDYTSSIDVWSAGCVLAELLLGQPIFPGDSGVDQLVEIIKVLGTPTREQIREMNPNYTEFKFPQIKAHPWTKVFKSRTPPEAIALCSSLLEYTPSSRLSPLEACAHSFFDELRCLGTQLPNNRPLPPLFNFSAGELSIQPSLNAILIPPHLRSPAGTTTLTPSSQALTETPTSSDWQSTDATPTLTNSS
Chain of Serine/threonine-protein kinase D3 (O94806 whole entry): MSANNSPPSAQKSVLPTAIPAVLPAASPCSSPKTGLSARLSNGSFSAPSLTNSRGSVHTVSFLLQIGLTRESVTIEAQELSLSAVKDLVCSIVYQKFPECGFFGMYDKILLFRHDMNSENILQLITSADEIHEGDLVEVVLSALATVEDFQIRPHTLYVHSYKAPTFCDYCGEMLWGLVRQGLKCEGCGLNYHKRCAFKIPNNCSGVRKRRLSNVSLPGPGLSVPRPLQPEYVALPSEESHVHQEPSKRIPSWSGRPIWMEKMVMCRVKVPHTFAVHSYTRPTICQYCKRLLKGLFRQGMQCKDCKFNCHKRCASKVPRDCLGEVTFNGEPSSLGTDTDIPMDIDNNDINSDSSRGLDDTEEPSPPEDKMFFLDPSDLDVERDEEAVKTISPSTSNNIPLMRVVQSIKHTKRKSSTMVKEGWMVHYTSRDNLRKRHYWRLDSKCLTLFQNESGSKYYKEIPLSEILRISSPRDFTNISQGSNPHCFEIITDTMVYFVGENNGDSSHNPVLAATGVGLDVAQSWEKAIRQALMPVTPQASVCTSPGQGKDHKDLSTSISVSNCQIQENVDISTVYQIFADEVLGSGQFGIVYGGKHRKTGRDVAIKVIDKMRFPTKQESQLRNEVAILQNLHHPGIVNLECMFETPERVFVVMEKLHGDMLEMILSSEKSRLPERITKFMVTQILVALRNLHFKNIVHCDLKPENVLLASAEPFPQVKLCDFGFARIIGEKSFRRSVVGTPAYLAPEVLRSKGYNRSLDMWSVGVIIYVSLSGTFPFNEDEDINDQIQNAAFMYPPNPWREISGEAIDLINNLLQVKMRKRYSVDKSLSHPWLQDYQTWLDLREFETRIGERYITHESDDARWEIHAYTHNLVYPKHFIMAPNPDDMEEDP
Chain of Dual specificity mitogen-activated protein kinase kinase 2 (P36507 whole entry): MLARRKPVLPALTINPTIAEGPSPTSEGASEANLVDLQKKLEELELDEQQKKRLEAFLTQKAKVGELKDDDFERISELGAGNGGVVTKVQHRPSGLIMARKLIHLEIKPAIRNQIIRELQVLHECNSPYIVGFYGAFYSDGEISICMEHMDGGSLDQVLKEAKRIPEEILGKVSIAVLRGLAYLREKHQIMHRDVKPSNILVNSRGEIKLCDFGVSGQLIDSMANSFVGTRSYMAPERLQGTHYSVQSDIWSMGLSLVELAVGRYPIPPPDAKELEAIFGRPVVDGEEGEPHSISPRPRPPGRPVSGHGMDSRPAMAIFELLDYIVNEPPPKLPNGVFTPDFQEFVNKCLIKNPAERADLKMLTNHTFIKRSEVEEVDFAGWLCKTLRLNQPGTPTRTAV
Chain of Insulin-like growth factor 1 receptor (P08069 31-736 limits assumed): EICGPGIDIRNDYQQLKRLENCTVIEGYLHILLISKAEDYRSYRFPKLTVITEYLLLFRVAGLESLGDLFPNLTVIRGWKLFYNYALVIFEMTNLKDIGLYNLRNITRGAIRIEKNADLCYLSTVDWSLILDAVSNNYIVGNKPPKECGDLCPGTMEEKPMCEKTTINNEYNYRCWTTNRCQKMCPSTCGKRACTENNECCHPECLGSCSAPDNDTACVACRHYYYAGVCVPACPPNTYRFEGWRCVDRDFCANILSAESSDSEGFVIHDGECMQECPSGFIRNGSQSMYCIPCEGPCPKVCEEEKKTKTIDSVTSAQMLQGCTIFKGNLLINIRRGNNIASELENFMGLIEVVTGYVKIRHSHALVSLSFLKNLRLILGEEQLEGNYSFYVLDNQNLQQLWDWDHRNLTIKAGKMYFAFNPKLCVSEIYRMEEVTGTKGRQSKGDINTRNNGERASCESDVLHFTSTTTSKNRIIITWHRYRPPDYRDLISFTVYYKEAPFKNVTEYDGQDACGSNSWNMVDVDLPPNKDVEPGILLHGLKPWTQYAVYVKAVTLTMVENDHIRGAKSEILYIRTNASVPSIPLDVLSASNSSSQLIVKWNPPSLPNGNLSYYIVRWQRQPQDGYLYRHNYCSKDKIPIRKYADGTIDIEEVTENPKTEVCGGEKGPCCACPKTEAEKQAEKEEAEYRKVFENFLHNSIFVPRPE
Chain of Insulin-like growth factor 1 receptor (P08069 741-1367 limits assumed): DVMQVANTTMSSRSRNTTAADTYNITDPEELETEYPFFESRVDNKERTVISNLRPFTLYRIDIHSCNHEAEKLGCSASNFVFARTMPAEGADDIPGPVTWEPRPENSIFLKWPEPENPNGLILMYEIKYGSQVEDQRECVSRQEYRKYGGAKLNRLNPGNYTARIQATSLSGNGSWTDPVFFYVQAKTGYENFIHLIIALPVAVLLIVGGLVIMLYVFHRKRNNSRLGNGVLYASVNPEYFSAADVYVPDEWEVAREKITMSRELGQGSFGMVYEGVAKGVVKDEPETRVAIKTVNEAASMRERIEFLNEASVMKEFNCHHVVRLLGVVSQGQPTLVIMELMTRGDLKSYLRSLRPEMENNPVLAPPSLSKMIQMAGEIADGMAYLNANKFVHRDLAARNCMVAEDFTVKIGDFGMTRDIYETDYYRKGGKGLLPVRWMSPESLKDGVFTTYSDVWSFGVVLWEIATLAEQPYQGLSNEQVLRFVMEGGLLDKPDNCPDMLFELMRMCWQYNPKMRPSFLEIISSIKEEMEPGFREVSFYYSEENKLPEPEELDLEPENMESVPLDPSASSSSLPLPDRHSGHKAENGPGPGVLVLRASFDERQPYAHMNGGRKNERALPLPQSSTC
Chain of ATP-dependent molecular chaperone HSP82 (C4YTQ8 whole entry): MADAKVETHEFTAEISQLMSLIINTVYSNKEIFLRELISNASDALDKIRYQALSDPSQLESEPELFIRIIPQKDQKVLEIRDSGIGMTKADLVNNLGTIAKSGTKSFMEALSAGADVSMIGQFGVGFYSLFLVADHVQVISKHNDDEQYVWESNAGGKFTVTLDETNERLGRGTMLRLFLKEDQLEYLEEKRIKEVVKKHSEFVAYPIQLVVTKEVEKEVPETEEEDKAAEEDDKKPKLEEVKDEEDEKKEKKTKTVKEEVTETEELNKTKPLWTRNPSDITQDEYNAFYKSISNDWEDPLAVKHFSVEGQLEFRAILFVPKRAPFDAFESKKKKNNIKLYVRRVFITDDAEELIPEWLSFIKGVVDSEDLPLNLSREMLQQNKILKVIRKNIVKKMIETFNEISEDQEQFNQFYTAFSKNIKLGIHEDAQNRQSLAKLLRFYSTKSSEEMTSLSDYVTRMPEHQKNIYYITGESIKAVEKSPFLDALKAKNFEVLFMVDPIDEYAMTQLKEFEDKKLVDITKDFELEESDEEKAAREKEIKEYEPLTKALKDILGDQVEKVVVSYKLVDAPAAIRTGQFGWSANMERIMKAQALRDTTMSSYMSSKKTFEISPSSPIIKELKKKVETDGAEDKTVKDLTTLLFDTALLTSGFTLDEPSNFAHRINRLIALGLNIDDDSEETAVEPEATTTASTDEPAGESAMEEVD

With `O=C(NC1=C(NC2CCS(=O)(=O)C2)C(=O)c2ccccc2C1=O)c1ccccc1` (stereo unspecified) the EC50 (Protein RecA) was 101 nM (active).
For `CCCC(=O)NC(c1ccc(N(C)C)cc1)c1ccc2cccnc2c1O` (stereo unspecified), the EC50 [1] was > 260 µM (inactive), the EC50 [2] was > 180 µM (inactive) and the EC50 [3] was > 160 µM (inactive). The AC50 [4] was 2.09 µM (active).
For `O=C1NC(=O)C(c2c[nH]c3ccccc23)=C1c1nc(N2CCNCC2)nc2ccccc12`, the Ki [5] was 794 nM (active), the Ki [6] was 1 µM (active) and the Ki [7] was 1.26 µM (active). For the same compound, the Ki [8] was 39.8 nM (active), the Ki [9] was > 2.51 µM (inactive) and the Ki [10] was 1.58 µM (active). For the same compound, the Ki [11] was > 3.98 µM (inactive), the Ki [12] was 1.26 µM (active) and the Ki [13] was > 3.16 µM (inactive). The Ki [14] was 794 nM (active) and the Ki [15] was > 6.31 µM (inactive).
